The values that follow come from patent publication US4447440A, “Sulphenamides-containing lipoxygenase inhibiting agents and their use in pharmaceutical compositions” (Bayer Aktiengesellschaft, priority 1981, dated 1984).

The first experiment addresses T1, platelet lipoxygenase (Homo sapiens, UniProt P18054).
T1 construct: metabolism of radioactively labelled arachidonic acid by washed human platelets; endogenous in cells; host or cells: washed human platelets
T1 sequence (P18054 1-663): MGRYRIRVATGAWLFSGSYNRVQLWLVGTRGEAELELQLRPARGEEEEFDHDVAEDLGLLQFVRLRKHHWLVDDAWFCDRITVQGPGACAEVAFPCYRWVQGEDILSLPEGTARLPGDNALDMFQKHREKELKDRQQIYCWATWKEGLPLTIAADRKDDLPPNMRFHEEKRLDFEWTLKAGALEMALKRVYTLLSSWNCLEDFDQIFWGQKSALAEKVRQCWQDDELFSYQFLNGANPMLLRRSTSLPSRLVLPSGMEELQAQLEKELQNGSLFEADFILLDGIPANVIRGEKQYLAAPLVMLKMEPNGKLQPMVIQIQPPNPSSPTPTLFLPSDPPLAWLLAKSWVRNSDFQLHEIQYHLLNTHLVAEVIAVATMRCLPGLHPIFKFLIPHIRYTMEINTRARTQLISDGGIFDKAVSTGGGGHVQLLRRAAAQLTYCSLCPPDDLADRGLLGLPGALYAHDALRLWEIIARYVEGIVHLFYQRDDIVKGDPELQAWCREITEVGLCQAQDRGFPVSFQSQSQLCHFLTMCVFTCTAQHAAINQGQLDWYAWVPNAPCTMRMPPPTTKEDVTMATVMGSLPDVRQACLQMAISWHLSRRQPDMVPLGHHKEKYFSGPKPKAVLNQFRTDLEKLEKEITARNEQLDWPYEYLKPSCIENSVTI
The experiment in a line: Inhibition of the platelet lipoxygenase (synthesis of HETE), metabolism of radioactively labelled arachidonic acid by washed human platelets. Format: cell-based. The note with it: in vitro. As for the experimental part: In this test method, the metabolism of radioactively labelled arachidonic acid by washed human platelets is investigated. In this in vitro test, the radioactively labelled metabolites are extracted from the reaction mixture and separated by thin layer chromatography. The autoradiogram is evaluated on the thin layer scanner. Under these test conditions, the labelled metabolites are separated from the unreacted arachidonic acid and can subsequently be quantitatively evaluated. The distribution of the radioactivity in the cyclooxygenase products, formed during metabolism, thomboxane B2 (TXB2) and 12-hydroxy-5,8,10-heptadecatrienic acid (HHT) and the lipoxygenase product 12-hydroxy-5,8,11,14-eicosatetraenoic acid (HETE) as influenced by the inhibitors, gives a measure of the inhibition of the enzymes.
The inhibition of lipoxygenase by the sulphenamides which can be used according to the invention can be measured by the inhibition of the synthesis of HETE. […] Inhibition of the platelet lipoxygenase (synthesis of HETE)
Consider `Nc1ncn(Sc2ccccc2)n1` [Example 2], for which the “Minimum effective inhibitory concentration (at least 50% inhibition)” value was 10^-6 g/ml.
`Nc1ncn(Sc2ccc(Cl)cc2)n1` [Example 3]: the “Minimum effective inhibitory concentration (at least 50% inhibition)” value was 10^-6 g/ml.
Consider `O=c1n(Sc2ccccc2)c(=O)n2c(=O)n(Sc3ccccc3)c(=O)n12` [Example 18], for which the “Minimum effective inhibitory concentration (at least 50% inhibition)” value is 3e-06 g/mL.
The same measure, in the same setting: the same measure for `O=C1c2ccccc2C(=O)N1Sc1ccccc1` [Example 29]: 10^-6 g/ml.
In the case of `O=C1c2ccccc2C(=O)N1Sc1ccc(Cl)cc1` [Example 30], the “Minimum effective inhibitory concentration (at least 50% inhibition)” value was found to be 3e-06 g/mL.
The same measure, in the same setting: the same measure for `Cc1ccc(SN2C(=O)c3ccccc3C2=O)cc1` [Example 31]: 3e-06 g/mL; for `O=C1c2ccccc2C(=O)N1SC1CCCCC1` [Example 32]: 3e-06 g/mL; for `CC(C)(C)c1ccc(SN2C(=O)c3ccccc3C2=O)cc1` [Example 35]: 3e-06 g/mL.
Same read-out and setting: for `O=C1c2ccc([N+](=O)[O-])cc2C(=O)N1Sc1ccccc1` [Example 39] the value was 10^-6 g/ml.
As for `O=C1c2ccc([N+](=O)[O-])cc2C(=O)N1Sc1ccc(Cl)cc1` [Example 40], the “Minimum effective inhibitory concentration (at least 50% inhibition)” value came out at 3e-06 g/mL.
Still for that read-out and setting: for `O=C1c2c(Cl)c(Cl)c(Cl)c(Cl)c2C(=O)N1Sc1ccccc1` [Example 42] the value was 3e-06 g/mL; for `CC(C)(C)c1ccc(SN2C(=O)c3c(Cl)c(Cl)c(Cl)c(Cl)c3C2=O)cc1` [Example 43], 3e-06 g/mL.
`O=C1CCCN1Sc1ccccc1` [Example 52]: the “Minimum effective inhibitory concentration (at least 50% inhibition)” value is given as 10^-6 g/ml.
`O=C1CCCN1Sc1ccc(Cl)cc1` [Example 53]: the “Minimum effective inhibitory concentration (at least 50% inhibition)” value is 10^-6 g/ml.
In the case of `CC(C)(C)c1ccc(SN2CCCC2=O)cc1` [Example 54], the “Minimum effective inhibitory concentration (at least 50% inhibition)” value is recorded as 10^-6 g/ml.
Regarding `O=C1CCCCCN1Sc1ccccc1` [Example 55], the “Minimum effective inhibitory concentration (at least 50% inhibition)” value is 10^-6 g/ml.
Regarding `O=C1CCCCCN1Sc1ccc(Cl)cc1` [Example 56], the “Minimum effective inhibitory concentration (at least 50% inhibition)” value came out at 3e-06 g/mL.
On to `CC(C)(C)c1ccc(SN2CCCCCC2=O)cc1` [Example 57], for which the “Minimum effective inhibitory concentration (at least 50% inhibition)” value is 10^-5 g/ml.
Still for that read-out and setting: for `O=C1c2ccccc2S(=O)(=O)N1Sc1ccccc1` [Example 60] the value was 3e-06 g/mL.
Same read-out and setting: the same measure for `O=C1c2ccccc2S(=O)(=O)N1Sc1ccc(Cl)cc1` [Example 61]: 10^-6 g/ml; for `CC(C)(C)c1ccc(SN2C(=O)c3ccccc3S2(=O)=O)cc1` [Example 62]: 3e-06 g/mL; for `O=C1C(=O)N(Sc2ccccc2)c2ccccc21` [Example 68]: 3e-06 g/mL.
On the same count and under the same terms, for `O=C1CCN(c2ccccc2)N1Sc1ccc(Cl)cc1` [Example 72] the value was 10^-6 g/ml.
Consider `CC1=NN(Sc2ccccc2)C(=O)C1` [Example 74], for which the “Minimum effective inhibitory concentration (at least 50% inhibition)” value was 10^-6 g/ml.
Regarding `Clc1ccc(Sn2cccn2)cc1` [Example 75], the “Minimum effective inhibitory concentration (at least 50% inhibition)” value was 3e-06 g/mL.
In the case of `O=c1oc2ccccc2c(=O)n1SC1CCCCC1` [Example 76], the “Minimum effective inhibitory concentration (at least 50% inhibition)” value is 3e-06 g/mL.
The same measure, in the same setting: the same measure for `c1ccc2c(c1)ncn2SC1CCCCC1` [Example 80, 1-cyclohexylthiobenzimidazole]: 1e-05 g/mL; for `CCC(C)Sn1cnc2ccccc21` (centres unmarked) [Example 84]: 1e-05 g/mL.

A further experiment relates to leucocytes (migration). The experiment in a line: Inhibition of the migration of leucocytes, sponge soaked in active compound introduced under the dorsal skin of rats. Format: in vivo. As to conditions: Leucocyte, rat, local dose 10 mg/rat, read-out: Inhibition of the migration of leucocytes (control = 0%). The text has this: The sulphenamides used according to the present invention are also active in vivo. […] Table 2 which follows summarises the activities of some illustrative sulphenamides after local administration, by introduction of a piece of sponge soaked in the active compound under the dorsal skin of rats.
For `Nc1ncn(Sc2ccccc2)n1` [Example 2], the inhibition in vivo at 10 mg is 70%.
The same measure, in the same setting: the same measure for `Cc1ccc(Sn2cnc(N)n2)cc1` [Example 4]: 61%; for `Clc1ccc(SNc2nnc(N3CCOCC3)s2)cc1` [Example 5]: 22%.
The same measure, in the same setting: the same measure for `c1ccc(CNSc2nnnn2-c2ccccc2)cc1` [Example 10]: 26%.
On the same count and under the same terms, for `c1ccc(-n2nnnc2SNc2nc[nH]n2)cc1` [Example 11] the value was 22%; for `CC1(C)OC(C)(C)N(Sc2ccc(Cl)cc2)C1=O` [Example 15], 47%; for `Cc1ccc(SN2C(=O)C(C)(C)OC2(C)C)cc1` [Example 16], 40%.
In the case of `O=c1n(Sc2ccccc2)c(=O)n2c(=O)n(Sc3ccccc3)c(=O)n12` [Example 18], the inhibition in vivo at 10 mg is 41%.
The same measure, in the same setting: the same measure for `O=C1CCCN1Sc1ccc(Cl)c(C(F)(F)F)c1` [Example 20]: 64%; for `O=C1CCCN1Sc1cc(C(F)(F)F)ccc1Cl` [Example 21]: 44%.
Still for that read-out and setting: the same measure for `COC(=O)c1ccc(SN2CCCC2=O)cc1` [Example 22]: 64%; for `O=C1c2ccccc2C(=O)N1Sc1ccccc1` [Example 29]: 48%; for `Cc1ccc(SN2C(=O)c3ccccc3C2=O)cc1` [Example 31]: 43%.
With `O=C1c2ccccc2C(=O)N1SC1CCCCC1` [Example 32], the inhibition in vivo at 10 mg is 38%.
On the same count and under the same terms, the same measure for `O=C1c2ccc([N+](=O)[O-])cc2C(=O)N1Sc1ccccc1` [Example 36]: 64%; for `O=C1c2ccc([N+](=O)[O-])cc2C(=O)N1Sc1ccc(Cl)cc1` [Example 38]: 56%.
Consider `O=c1c2cc3c(=O)n(Sc4ccccc4)c(=O)c3cc2c(=O)n1Sc1ccccc1` [Example 45], for which the inhibition in vivo at 10 mg came out at 40%.
On to `O=C1c2cccc3cccc(c23)C(=O)N1Sc1ccccc1` [Example 47], for which the inhibition in vivo at 10 mg came out at 21%.
Still for that read-out and setting: for `O=C1CCCN1Sc1ccccc1` [Example 52] the value was 76%; for `O=C1CCCCCN1Sc1ccccc1` [Example 55], 78%; for `O=C1CCCCCN1Sc1ccc(Cl)cc1` [Example 56], 86%.
For `O=C1CCCCCCCCCCN1Sc1ccccc1` [Example 58], the inhibition in vivo at 10 mg is 78%.
Still for that read-out and setting: for `O=C1C(=O)N(Sc2ccc(Cl)cc2)c2ccccc21` [Example 69] the value was 20%; for `CC1=NN(Sc2ccccc2)C(=O)C1` [Example 74], 52%.

Still in this experiment, the particulars now being: rat, local dose 10 mg/rat.
For `O=C1c2ccc([N+](=O)[O-])cc2C(=O)N1Sc1ccc(Cl)cc1` [Example 40], the “Inhibition of the migration of leucocytes (control = 0%)” value amounted to 41%.

A further experiment concerns lipoxygenase / cyclooxygenase.
Experiment: not given
As to conditions: prior art; cited from earlier work.
For `CCCCCC#CCC#CCC#CCC#CCCCC(=O)O` [5,8,11,14-eicosatetrainoic acid], the “activity of known inhibitors of lipoxygenase, in words” value is listed as “either simultaneously active as inhibitors of cyclooxygenase, or only active at very high concentrations”.
Turning to `CC(Cc1ccc(O)c(O)c1)C(C)Cc1ccc(O)c(O)c1` (centres unmarked) [nordihydroguaiaretic acid], the “activity of known inhibitors of lipoxygenase, in words” value is reported as “either simultaneously active as inhibitors of cyclooxygenase, or only active at very high concentrations”.
Turning to `O=C1CCN(c2ccccc2)N1` [phenidone], the “activity of known inhibitors of lipoxygenase, in words” value is “either simultaneously active as inhibitors of cyclooxygenase, or only active at very high concentrations”.
